The values that follow are results of earlier work, collected in patent US8916340B2, “Method for identifying and validating dominant T helper cell epitopes using an HLA-DM-assisted class II binding assay” (The John Hopkins University, priority 2006, dated 2014).

This data set deals with HLA-DR1 (Homo sapiens, UniProt P01903+P01911). The note with it: short-lived, DM-sensitive complex of peptide with HLA-DR1.
Sequence of HLA-DR1 (P01903 26-216, other chains not shown): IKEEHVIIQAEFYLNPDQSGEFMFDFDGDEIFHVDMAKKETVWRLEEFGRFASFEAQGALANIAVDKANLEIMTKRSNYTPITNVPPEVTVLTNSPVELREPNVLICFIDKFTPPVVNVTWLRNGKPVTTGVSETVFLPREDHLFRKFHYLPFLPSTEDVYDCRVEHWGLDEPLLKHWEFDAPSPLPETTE

In the case of PKAVKQNTLKLAT [HAy308A], the “t1/2 of complex with HLA-DR1” value was 34 min.
